# From patent US9045491B2, “Thienyl [3,2-D] pyrimidin-4-one compounds, preparation method, pharmaceutical compositions and use thereof” (SHANGHAI INSTITUTE OF MATERIA MEDICA, CHINESE ACADEMY OF …, priority 2011, dated 2015)
# Counter-ions that a name gives are not always drawn.
# Key:
# Assay type in all cases: biochemical
# [1] = target: T1, human DPP IV (Homo sapiens, UniProt P27487); test: DPP IV activity screening (Ala-Pro-AMC fluorescence)
# T1 construct: extracellular fragment of protease DPP IV (aa29-766); made in house; host or cells: baculovirus expression system Bac-to-Bac
# T1 sequence (P27487 29-766): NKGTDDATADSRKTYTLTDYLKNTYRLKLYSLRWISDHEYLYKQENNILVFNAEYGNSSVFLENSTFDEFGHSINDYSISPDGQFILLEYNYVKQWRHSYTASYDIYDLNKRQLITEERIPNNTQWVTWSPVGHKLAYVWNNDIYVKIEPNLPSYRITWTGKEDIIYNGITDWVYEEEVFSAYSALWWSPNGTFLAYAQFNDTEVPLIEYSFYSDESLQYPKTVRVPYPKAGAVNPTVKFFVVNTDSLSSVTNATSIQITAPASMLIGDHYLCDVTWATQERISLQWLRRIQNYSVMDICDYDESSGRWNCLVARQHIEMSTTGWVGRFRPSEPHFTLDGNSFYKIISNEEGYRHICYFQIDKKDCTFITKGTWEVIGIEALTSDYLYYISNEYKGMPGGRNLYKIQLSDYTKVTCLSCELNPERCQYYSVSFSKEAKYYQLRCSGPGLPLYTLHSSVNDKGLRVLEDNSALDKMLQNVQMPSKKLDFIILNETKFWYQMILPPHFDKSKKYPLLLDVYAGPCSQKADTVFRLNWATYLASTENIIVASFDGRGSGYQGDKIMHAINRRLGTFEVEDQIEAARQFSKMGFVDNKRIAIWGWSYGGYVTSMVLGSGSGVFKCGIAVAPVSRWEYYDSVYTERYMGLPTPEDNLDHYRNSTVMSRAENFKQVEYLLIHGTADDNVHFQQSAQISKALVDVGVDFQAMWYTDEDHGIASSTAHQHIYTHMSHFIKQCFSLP
# Procedure: (§1) Screening method: dipeptidyl peptidase IV (DPP IV) activity screening, dipeptidyl peptidase 7 (DPP 7), dipeptidyl peptidase 8 (DPP 8) activity screening, and dipeptidyl peptidase 9 (DPP 9) activity screening.
# Instruments: Microplate Reader (PerkinElmer, USA).
# The linear change of fluorescence value at 460 nm in unit time was dynamically measured and DPP IV activity was obtained by calculation.
# (§2) Sample treatment: the sample was dissolved in DMSO and stored in low temperature. The concentration of DMSO in the final system was controlled so that the detected activity was not affected.
# (§3) The activity of sample was tested under the selected single concentration from preliminary screening, for example, 20 μg/mL. […] The software for calculation was Graphpad Prism 4 and the model used for fitting was sigmoidal dose-response (variable slope). For most inhibitor screening models, the bottom and top of the fitting curve were set to 0 and 100.
# [2] = target: dipeptidyl peptidase 7 (DPP 7) (Homo sapiens, UniProt Q9UHL4); test: DPP 7 activity screening; details: N.I. = No Inhibition
# Procedure: as §1, §2, §3
# [3] = target: T2, human DPP 8 (Homo sapiens, UniProt Q6V1X1); test: DPP 8 activity screening (Ala-Pro-AMC fluorescence); details: N.I. = No Inhibition
# T2 construct: made in house; host or cells: insect cells, baculovirus Bac-to-Bac
# T2 sequence (Q6V1X1 whole entry): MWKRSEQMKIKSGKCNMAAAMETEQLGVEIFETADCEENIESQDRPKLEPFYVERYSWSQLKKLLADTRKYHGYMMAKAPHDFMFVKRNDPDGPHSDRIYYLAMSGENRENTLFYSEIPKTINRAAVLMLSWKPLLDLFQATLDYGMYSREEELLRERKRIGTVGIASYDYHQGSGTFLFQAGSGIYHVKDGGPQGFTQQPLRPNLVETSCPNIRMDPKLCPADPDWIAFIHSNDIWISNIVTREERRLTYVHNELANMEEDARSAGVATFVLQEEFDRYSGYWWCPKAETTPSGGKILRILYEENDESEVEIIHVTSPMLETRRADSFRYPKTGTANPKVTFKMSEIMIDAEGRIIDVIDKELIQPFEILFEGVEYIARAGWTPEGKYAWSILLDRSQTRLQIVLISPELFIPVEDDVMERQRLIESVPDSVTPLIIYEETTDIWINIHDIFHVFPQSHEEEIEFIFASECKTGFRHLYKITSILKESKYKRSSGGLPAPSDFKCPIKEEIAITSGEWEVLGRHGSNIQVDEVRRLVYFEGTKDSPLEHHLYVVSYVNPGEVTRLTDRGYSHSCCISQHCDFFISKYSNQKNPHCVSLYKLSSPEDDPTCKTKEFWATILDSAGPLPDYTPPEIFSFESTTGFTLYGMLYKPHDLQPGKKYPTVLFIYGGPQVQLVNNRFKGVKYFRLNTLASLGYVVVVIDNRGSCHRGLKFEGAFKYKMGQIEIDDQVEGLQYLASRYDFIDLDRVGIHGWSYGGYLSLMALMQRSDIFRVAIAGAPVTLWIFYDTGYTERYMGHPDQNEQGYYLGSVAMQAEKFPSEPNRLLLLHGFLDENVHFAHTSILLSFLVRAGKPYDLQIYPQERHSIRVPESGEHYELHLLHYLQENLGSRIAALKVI
# From the text: as §1
# (§4) Materials: human DPP IV, obtained extracellular fragment of protease DPP IV (aa29-766), was expressed and purified by our laboratory using baculovirus expression system Bac-to-Bac (purchased from GIBCO company) in accordance with the conventional experimental technology; human DPP 8 was obtained in insect cells by our laboratory using baculovirus expression system Bac-to-Bac (purchased from GIBCO company) in accordance with the conventional experimental technology; Human DPP 9 was obtained in insect cells by our laboratory using baculovirus expression system Bac-to-Bac (purchased from GIBCO company) in accordance with the conventional experimental technology; and the substrate Ala-Pro-AMC was synthesized by GL Biochem (Shanghai) Ltd.
# (§5) Principle of Activity test: DPP IV, DPP 8 and DPP 9 can specifically hydrolyze the substrate Ala-Pro-AMC to form product AMC, and AMC is excited by 355 nm of UV light to generate 460 nm of emission light. The linear change of fluorescence value at 460 nm in unit time was dynamically measured and DPP IV activity was obtained by calculation.
# as §2, §3
# [4] = target: T3, Human DPP 9 (Homo sapiens, UniProt Q86TI2); test: DPP 9 activity screening (Ala-Pro-AMC fluorescence); details: N.I. = No Inhibition
# T3 construct: made in house; host or cells: insect cells, baculovirus Bac-to-Bac
# T3 sequence (Q86TI2 whole entry): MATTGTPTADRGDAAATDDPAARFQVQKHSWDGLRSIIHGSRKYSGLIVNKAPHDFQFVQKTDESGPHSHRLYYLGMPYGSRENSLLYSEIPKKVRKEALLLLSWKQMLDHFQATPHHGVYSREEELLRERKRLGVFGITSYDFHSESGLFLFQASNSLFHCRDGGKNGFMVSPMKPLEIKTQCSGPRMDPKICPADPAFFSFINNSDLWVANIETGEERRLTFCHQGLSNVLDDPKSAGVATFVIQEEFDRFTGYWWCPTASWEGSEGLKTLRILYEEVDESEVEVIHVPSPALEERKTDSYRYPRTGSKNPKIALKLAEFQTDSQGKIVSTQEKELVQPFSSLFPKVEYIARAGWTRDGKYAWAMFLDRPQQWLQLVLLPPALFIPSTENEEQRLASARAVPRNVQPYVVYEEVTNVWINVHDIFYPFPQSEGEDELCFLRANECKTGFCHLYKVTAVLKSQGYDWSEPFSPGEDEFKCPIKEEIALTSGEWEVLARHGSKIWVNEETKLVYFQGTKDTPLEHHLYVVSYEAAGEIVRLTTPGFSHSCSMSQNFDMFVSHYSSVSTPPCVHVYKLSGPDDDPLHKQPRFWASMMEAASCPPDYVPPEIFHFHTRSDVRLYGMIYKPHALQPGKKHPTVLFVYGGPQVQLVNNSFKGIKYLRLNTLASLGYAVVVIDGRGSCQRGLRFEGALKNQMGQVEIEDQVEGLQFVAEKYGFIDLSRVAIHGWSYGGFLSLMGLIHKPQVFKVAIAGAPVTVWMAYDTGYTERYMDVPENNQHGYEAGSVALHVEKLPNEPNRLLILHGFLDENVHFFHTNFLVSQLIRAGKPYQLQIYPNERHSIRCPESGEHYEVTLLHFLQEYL
# From the text: as §1, §4, §5, §2, §3
# [5] = target: T4, FAP (Homo sapiens, UniProt Q12884); test: FAP inhibition (Table 1); details: N.I. = No Inhibition
# T4 sequence (Q12884 1-760): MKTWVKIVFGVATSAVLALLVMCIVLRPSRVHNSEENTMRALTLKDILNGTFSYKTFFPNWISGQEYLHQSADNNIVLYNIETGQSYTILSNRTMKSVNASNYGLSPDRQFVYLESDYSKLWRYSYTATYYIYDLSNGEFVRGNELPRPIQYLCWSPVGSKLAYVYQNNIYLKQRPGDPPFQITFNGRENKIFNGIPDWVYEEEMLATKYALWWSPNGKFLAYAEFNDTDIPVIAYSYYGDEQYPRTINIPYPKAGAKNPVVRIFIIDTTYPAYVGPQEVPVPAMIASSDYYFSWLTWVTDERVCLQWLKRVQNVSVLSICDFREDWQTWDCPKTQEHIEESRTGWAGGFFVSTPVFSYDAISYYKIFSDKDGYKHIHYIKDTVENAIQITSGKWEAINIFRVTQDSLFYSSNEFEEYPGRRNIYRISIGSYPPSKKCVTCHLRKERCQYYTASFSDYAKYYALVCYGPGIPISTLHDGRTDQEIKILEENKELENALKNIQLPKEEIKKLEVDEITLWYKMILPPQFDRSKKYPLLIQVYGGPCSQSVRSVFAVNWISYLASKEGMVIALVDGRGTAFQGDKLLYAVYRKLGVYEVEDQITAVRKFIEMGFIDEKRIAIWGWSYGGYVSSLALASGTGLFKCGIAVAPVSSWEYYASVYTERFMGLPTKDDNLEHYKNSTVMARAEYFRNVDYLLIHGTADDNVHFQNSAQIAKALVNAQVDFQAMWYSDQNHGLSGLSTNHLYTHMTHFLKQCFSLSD
Structure (SMILES),IC50 [1],DPP 7 IC50 [2],IC50 [3],IC50 [4],IC50 [5],DPP 9 IC50 [4],DPP 8 IC50 [3],FAP IC50 [5],IC50 [2]
"COC(=O)[C@H](Cc1ccc(O)cc1)NC(=O)c1cc2nc(N3CCC[C@@H](N)C3)n(Cc3ccccc3C#N)c(=O)c2s1 [Compound 101, (S)-methyl 2-(2-((R)-3-aminopiperidin-1-yl)-3-(2-cyanobenzyl)-4-oxo-3,4-dihydrothieno[3,2-d]pyrimidine-6-carboxamido)-3-(4-hydroxyphenyl)-propanoate]",0.0306 µM,N.I.,13.5 µM,14.8 µM,42 µM,,,,
"CCNC(=O)c1cc2nc(N3CCC[C@@H](N)C3)n(Cc3ccccc3C#N)c(=O)c2s1 [Compound 113, (R)-2-(3-aminopiperidin-1-yl)-3-(2-cyanobenzyl)-N-ethyl-4-oxo-3,4-dihydrothieno[3,2-d]pyrimidine-6-carboxamide]",0.0187 µM,N.I.,166 µM,303 µM,173 µM,,,,
"CC(C)CNC(=O)c1cc2nc(N3CCC[C@@H](N)C3)n(Cc3ccccc3C#N)c(=O)c2s1 [Compound 116, (R)-2-(3-aminopiperidin-1-yl)-3-(2-cyanobenzyl)-N-isobutyl-4-oxo-3,4-dihydrothieno[3,2-d]pyrimidine-6-carboxamide]",0.0186 µM,N.I.,95.3 µM,,126 µM,N.I.,,,
"COC(=O)[C@@H](NC(=O)c1csc2c(=O)n(Cc3ccccc3C#N)c(N3CCC[C@@H](N)C3)nc12)C(C)C [Compound 59, (S)-methyl 2-(2-((R)-3-aminopiperidin-1-yl)-3-(2-cyanobenzyl)-4-oxo-3,4-dihydrothieno[3,2-d]pyrimidine-7-carboxamido)-3-methylbutanoate]",0.0266 µM,N.I.,35 µM,187 µM,49.5 µM,,,,
"Cc1ccc(CNC(=O)c2cc3nc(N4CCC[C@@H](N)C4)n(Cc4ccccc4C#N)c(=O)c3s2)cc1 [Compound 122, (R)-2-(3-aminopiperidin-1-yl)-3-(2-cyanobenzyl)-N-(4-methylbenzyl)-4-oxo-3,4-dihydrothieno[3,2-d]-pyrimidine-6-carboxamide]",0.0263 µM,N.I.,,53.1 µM,,,N.I.,N.I.,
"N#Cc1ccccc1Cn1c(N2CCC[C@@H](N)C2)nc2c(C(=O)O)csc2c1=O [Compound 44, (R)-2-(3-aminopiperidin-1-yl)-3-(2-cyanobenzyl)-4-oxo-3,4-dihydrothieno-[3,2-d]pyrimidine-7-carboxylic acid hydrochloride]",0.00976 µM,,,,,N.I.,N.I.,N.I.,39.2 µM
"N#Cc1ccccc1Cn1c(N2CCC[C@@H](N)C2)nc2cc(C(=O)N3CCC(CO)CC3)sc2c1=O [Compound 124, (R)-2-((2-(3-aminopiperidin-1-yl)-6-(4-(hydroxymethyl)piperidine-1-carbonyl)-4-oxothieno[3,2-d]pyrimidin-3(4H)-yl)methyl)benzonitrile]",0.0269 µM,N.I.,43.9 µM,,,N.I.,,,
"N#Cc1ccccc1Cn1c(N2CCC[C@@H](N)C2)nc2cc(C(=O)N[C@H]3CCOC3=O)sc2c1=O [Compound 127, 2-((R)-3-aminopiperidin-1-yl)-3-(2-cyanobenzyl)-4-oxo-N-((S)-2-oxotetrahydrofuran-3-yl)-3,4-dihydrothieno[3,2-d]pyrimidine-6-carboxamide]",0.0246 µM,N.I.,52.7 µM,,,N.I.,,,
"N#Cc1ccccc1Cn1c(N2CCC[C@@H](N)C2)nc2cc(C(=O)NCCO)sc2c1=O [Compound 123, (R)-2-(3-aminopiperidin-1-yl)-3-(2-cyanobcnzyl)-N-(2-hydroxyethyl)-4-oxo-3,4-dihydrothieno[3,2-d]-pyrimidine-6-carboxamide]",0.0198 µM,N.I.,223 µM,,,N.I.,,,
"CS(=O)(=O)CCNC(=O)c1csc2c(=O)n(Cc3ccccc3C#N)c(N3CCC[C@@H](N)C3)nc12 [Compound 90, (R)-2-(3-aminopiperidin-1-yl)-3-(2-cyanobenzyl)-N-(2-(methylsulfonyl)-ethyl)-4-oxo-3,4-dihydrothieno[3,2-d]-pyrimidine-7-carboxamide]",0.0143 µM,N.I.,102 µM,,,N.I.,,,
"N#Cc1ccccc1Cn1c(N2CCC[C@@H](N)C2)nc2cc(C(=O)N3CCC[C@H]3CO)sc2c1=O [Compound 128, 2-((2-((R)-3-aminopiperidin-1-yl)-6-((S)-2-(hydroxymethyl)pyrrolidine-1-carbonyl)-4-oxothieno[3,2-d]pyrimidin-3(4H)-yl)methyl)benzonitrile]",0.0307 µM,N.I.,39 µM,,,N.I.,,,
"N#Cc1ccccc1Cn1c(N2CCC[C@@H](N)C2)nc2c(C(=O)NCCCO)csc2c1=O [Compound 93, (R)-2-(3-aminopiperidin-1-yl)-3-(2-cyanobenzyl)-N-(3-hydroxypropyl)-4-oxo-3,4-dihydrothieno[3,2-d]pyrimidine-7-carboxamide]",0.0148 µM,N.I.,60.7 µM,,,N.I.,,,
"COC(=O)[C@@H]1CCCN1C(=O)c1csc2c(=O)n(Cc3ccccc3C#N)c(N3CCC[C@@H](N)C3)nc12 [Compound 91, (S)-methyl 1-(2-((R)-3-aminopiperidin-1-yl)-3-(2-cyanobenzyl)-4-oxo-3,4-dihydrothieno[3,2-d]pyrimidine-7-carbonyl)pyrrolidine-2-carboxylate]",0.0364 µM,N.I.,88 µM,,,N.I.,,,
"CS(=O)(=O)CCNC(=O)c1cc2nc(N3CCC[C@@H](N)C3)n(Cc3ccccc3C#N)c(=O)c2s1 [Compound 126, (R)-2-(3-aminopiperidin-1-yl)-3-(2-cyanobenzyl)-N-(2-(methylsulfonyl)-ethyl)-4-oxo-3,4-dihydrothieno[3,2-d]-pyrimidine-6-carboxamide]",0.0201 µM,N.I.,55.9 µM,,,N.I.,,,
"CCOC(=O)C1CCN(C(=O)c2cc3nc(N4CCC[C@@H](N)C4)n(Cc4ccccc4C#N)c(=O)c3s2)CC1 [Compound 129, (R)-ethyl 1-(2-(3-aminopiperidin-1-yl)-3-(2-cyanobenzyl)-4-oxo-3,4-dihydrothieno[3,2-d]pyrimidine-6-carbonyl)piperidine-4-carboxylate]",0.0339 µM,N.I.,16.3 µM,,,N.I.,,,
"N#Cc1ccccc1Cn1c(N2CCC[C@@H](N)C2)nc2c(CO[C@H]3CCOC3)csc2c1=O [Compound 87, 2-((2-((R)-3-aminopiperidin-1-yl)-4-oxo-7-((((S)-tetrahydrofuran-3-yl)oxy)methyl)thieno[3,2-d]pyrimidin-3(4H)-yl)methyl)benzonitrile]",0.0265 µM,N.I.,,,,N.I.,N.I.,,
